Assay results reported in the supplement of paper PMC10307832.

Columns and labels:
Experiment in all cases: relative viability (nuclei count vs DMSO), 5 days (fraction); higher = more cells survive
[1] = tested on: LC-2-ad
Procedure, shortened: (§1)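 Nuclei were stained with Hoechst during a one-step fixation (final 0.05% Triton X-100, 1% formaldehyde, 1 ug/ml Hoechst) carried out 5 days after dosing, then counted on 4× images. The cells, lung cancer lines in 1536-well plates, had been dosed by pin tool the day after seeding with one drug alone or a fixed anchor-drug dose plus five library-drug doses (not always all listed) in √10 steps. Relative viability is the nuclei count in treated wells divided by that in vehicle wells, and each value is the median of duplicate plates.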

[2] = tested on: LU99A
Procedure, shortened: as §1

[3] = tested on: NCI-H650
Procedure, shortened: as §1

[4] = tested on: A-427
Procedure, shortened: as §1

[5] = tested on: NCI-H838
Procedure, shortened: as §1

[6] = tested on: NCI-H2228
Procedure, shortened: as §1

[7] = tested on: LOU-NH91
Procedure, shortened: as §1

[8] = tested on: SW 1573
Procedure, shortened: as §1

[9] = tested on: RERF-LC-KJ
Procedure, shortened: as §1

[10] = tested on: NCI-H460
Procedure, shortened: as §1

[11] = tested on: NCI-H1666
Procedure, shortened: as §1

[12] = tested on: NCI-H1993
Procedure, shortened: as §1

[13] = tested on: NCI-H1915
Procedure, shortened: as §1

[14] = tested on: PC-3 [JPC-3]
Procedure, shortened: as §1

[15] = tested on: NCI-H520
Procedure, shortened: as §1

[16] = tested on: IA-LM
Procedure, shortened: as §1

[17] = tested on: NCI-H1650
Procedure, shortened: as §1

[18] = tested on: NCI-H1355
Procedure, shortened: as §1

[19] = tested on: EKVX
Procedure, shortened: as §1

[20] = tested on: NCI-H2347
Procedure, shortened: as §1

[21] = tested on: LCLC-97TM1
Procedure, shortened: as §1

[22] = tested on: BEN
Procedure, shortened: as §1

[23] = tested on: NCI-H23
Procedure, shortened: as §1

## CCCCCCCCCCCC1=C(O)C(=O)C=C(O)C1=O [Embelin] + C[C@@H](Oc1cc(-c2cnn(C3CCNCC3)c2)cnc1N)c1c(Cl)ccc(F)c1Cl [Crizotinib] (partner 1 µM)
[1]; first compound 0.08 µM
  relative viability: 0.451
[1]; first compound 0.8 µM
  relative viability: 0.564
[1]; first compound 2.53 µM
  relative viability: 0.472
[1]; first compound 8 µM
  relative viability: 0.427
[2]; first compound 0.08 µM
  relative viability: 0.605
[2]; first compound 0.8 µM
  relative viability: 0.736
[2]; first compound 2.53 µM
  relative viability: 0.55
[2]; first compound 8 µM
  relative viability: 0.606
[3]; first compound 0.08 µM
  relative viability: 0.772
[3]; first compound 0.8 µM
  relative viability: 0.817
[3]; first compound 2.53 µM
  relative viability: 0.711
[3]; first compound 8 µM
  relative viability: 0.782
[4]; first compound 0.08 µM
  relative viability: 0.905
[4]; first compound 0.8 µM
  relative viability: 0.862
[4]; first compound 2.53 µM
  relative viability: 1.03
[4]; first compound 8 µM
  relative viability: 0.881
[5]; first compound 0.08 µM
  relative viability: 0.874
[5]; first compound 0.8 µM
  relative viability: 0.995
[5]; first compound 2.53 µM
  relative viability: 0.961
[5]; first compound 8 µM
  relative viability: 1.02
[6]; first compound 0.08 µM
  relative viability: 0.437
[6]; first compound 0.8 µM
  relative viability: 0.579
[6]; first compound 2.53 µM
  relative viability: 0.431
[6]; first compound 8 µM
  relative viability: 0.426
[7]; first compound 0.08 µM
  relative viability: 0.764
[7]; first compound 0.8 µM
  relative viability: 0.751
[7]; first compound 2.53 µM
  relative viability: 0.763
[7]; first compound 8 µM
  relative viability: 0.741
[8]; first compound 0.08 µM
  relative viability: 0.808
[8]; first compound 0.8 µM
  relative viability: 0.977
[8]; first compound 2.53 µM
  relative viability: 0.84
[8]; first compound 8 µM
  relative viability: 0.887
[9]; first compound 0.08 µM
  relative viability: 0.883
[9]; first compound 0.8 µM
  relative viability: 0.912
[9]; first compound 2.53 µM
  relative viability: 0.906
[9]; first compound 8 µM
  relative viability: 0.937
[10]; first compound 0.08 µM
  relative viability: 0.818
[10]; first compound 0.8 µM
  relative viability: 1.04
[10]; first compound 2.53 µM
  relative viability: 1.02
[10]; first compound 8 µM
  relative viability: 0.876
[11]; first compound 0.08 µM
  relative viability: 0.975
[11]; first compound 0.8 µM
  relative viability: 1.24
[11]; first compound 2.53 µM
  relative viability: 1.05
[11]; first compound 8 µM
  relative viability: 1.01
[12]; first compound 0.08 µM
  relative viability: 1
[12]; first compound 0.8 µM
  relative viability: 0.844
[12]; first compound 2.53 µM
  relative viability: 0.943
[12]; first compound 8 µM
  relative viability: 0.793
[13]; first compound 0.08 µM
  relative viability: 0.988
[13]; first compound 0.8 µM
  relative viability: 1.03
[13]; first compound 2.53 µM
  relative viability: 0.993
[13]; first compound 8 µM
  relative viability: 0.97
[14]; first compound 0.08 µM
  relative viability: 0.948
[14]; first compound 0.8 µM
  relative viability: 1.01
[14]; first compound 2.53 µM
  relative viability: 1.06
[14]; first compound 8 µM
  relative viability: 0.987
[15]; first compound 0.08 µM
  relative viability: 0.894
[15]; first compound 0.8 µM
  relative viability: 1
[15]; first compound 2.53 µM
  relative viability: 1.07
[15]; first compound 8 µM
  relative viability: 0.782
[16]; first compound 0.08 µM
  relative viability: 0.718
[16]; first compound 0.8 µM
  relative viability: 0.85
[16]; first compound 2.53 µM
  relative viability: 0.729
[16]; first compound 8 µM
  relative viability: 0.743
[17]; first compound 0.08 µM
  relative viability: 0.954
[17]; first compound 0.8 µM
  relative viability: 1.04
[17]; first compound 2.53 µM
  relative viability: 0.981
[17]; first compound 8 µM
  relative viability: 1.16
[18]; first compound 0.08 µM
  relative viability: 1.08
[18]; first compound 0.8 µM
  relative viability: 1.18
[18]; first compound 2.53 µM
  relative viability: 1.17
[18]; first compound 8 µM
  relative viability: 0.974
[19]; first compound 0.08 µM
  relative viability: 0.78
[19]; first compound 0.8 µM
  relative viability: 1.05
[19]; first compound 2.53 µM
  relative viability: 1.07
[19]; first compound 8 µM
  relative viability: 1.07
[20]; first compound 0.08 µM
  relative viability: 0.784
[20]; first compound 0.8 µM
  relative viability: 0.868
[20]; first compound 2.53 µM
  relative viability: 0.778
[20]; first compound 8 µM
  relative viability: 0.622
[21]; first compound 0.8 µM
  relative viability: 0.517
[21]; first compound 2.53 µM
  relative viability: 0.358
[21]; first compound 8 µM
  relative viability: 0.312
[22]; first compound 0.08 µM
  relative viability: 0.845
[22]; first compound 0.8 µM
  relative viability: 1.18
[22]; first compound 2.53 µM
  relative viability: 1.17
[22]; first compound 8 µM
  relative viability: 0.849
[23]; first compound 0.08 µM
  relative viability: 0.554
[23]; first compound 0.8 µM
  relative viability: 0.56
[23]; first compound 2.53 µM
  relative viability: 0.55
[23]; first compound 8 µM
  relative viability: 0.705
